Measured values published in patent US5225528A, “Cyclic hexapeptide oxytocin antagonists” (priority 1990, dated 1993).
Read-outs that look alike come from different tables or passages of the source. Numbered stars: 1 amine (or outer) side, 2 acyl side, 3 side chain; on linkers, the order of the positions; unused ones are H or OH. Square brackets hold non-standard residues; d marks the D form. Peptide text beside a SMILES is read from it. * marks the point of attachment. dPip(4-aza,4-Cbz) = O=C(O)[C@H]1CN(C(=O)OCc2ccccc2)CCN1; X2 = O=C(OCc1ccccc1)N1CCN([*:1])[C@H](C(=O)[*:2])C1; dPhe(4-NO2) = N[C@H](Cc1ccc([N+](=O)[O-])cc1)C(=O)O; dPhe(4-NH2) = Nc1ccc(C[C@@H](N)C(=O)O)cc1; Ethyl(2-morpholino) = C1CN(CC*)CCO1; dNMeY = CN[C@H](Cc1ccc(O)cc1)C(=O)O; Pip(4-aza) = O=C(O)[C@@H]1CNCCN1; dNMeF = CN[C@H](Cc1ccccc1)C(=O)O; dPip(4-aza) = O=C(O)[C@H]1CNCCN1; Chg = N[C@H](C(=O)O)C1CCCCC1; dOrn = NCCC[C@@H](N)C(=O)O; Pip = O=C(O)[C@@H]1CCCCN1; dPip = O=C(O)[C@H]1CCCCN1; Orn = NCCC[C@H](N)C(=O)O; Cbz = O=C(OCc1ccccc1)*; Me2Gly = CN(C)CC(=O)*

Experiments:
uterine OT receptors = target: T1, uterine OT receptors (Rattus norvegicus, UniProt P70536); assay: [^3 H]OT binding to uterine OT receptors, crude membrane preparation of uteri from DES-treated rats; details: for inhibition at 0.1 µM: 1 h, @ 100 (nM), read-out: [^3 H]OT: percent inhibition of radioligand at the given concentration; for IC50: rat uterus membranes, 1 nM [^3 H]OT, read-out: Receptor Binding Results IC50 (nM) [^3 H]OT
T1 construct: from tissue; host or cells: uterus of DES-treated rats, crude membranes
T1 sequence (P70536 1-388): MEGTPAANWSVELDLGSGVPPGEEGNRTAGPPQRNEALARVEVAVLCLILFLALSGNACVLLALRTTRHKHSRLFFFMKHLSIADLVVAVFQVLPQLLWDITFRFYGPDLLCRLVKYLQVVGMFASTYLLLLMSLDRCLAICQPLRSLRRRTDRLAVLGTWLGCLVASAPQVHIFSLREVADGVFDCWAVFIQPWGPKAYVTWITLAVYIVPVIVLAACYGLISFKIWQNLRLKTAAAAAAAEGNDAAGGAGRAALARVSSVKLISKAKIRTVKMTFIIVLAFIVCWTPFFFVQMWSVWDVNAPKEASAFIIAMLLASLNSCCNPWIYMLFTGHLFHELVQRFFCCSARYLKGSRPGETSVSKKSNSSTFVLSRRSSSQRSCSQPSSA
Description: Competition studies were conducted at equilibrium (60 minutes; 22° C.) using 1 nM [^3 H]OT in the following assay buffer: 50 mM Tris-HCl, 5 mM MgCl2, and 0.1% BSA, pH 7.4.

AVP-V1 sites = target: T2, AVP-V1 sites (Rattus norvegicus, UniProt P30560); assay: [^3 H]AVP binding to crude membrane preparation of male rat liver (AVP-V1 sites)
T2 construct: crude membrane preparation of male rat liver (AVP-V1 sites); from tissue; host or cells: male rat liver, crude membranes
Description: (§1) Nonspecific binding (5-10% of the total binding) was determined using 10 μM unlabeled AVP, and the binding reaction was terminated by filtration as described above for the [^3 H]OT binding assay.

AVP-V2 sites = target: T3, AVP-V2 sites (Rattus norvegicus, UniProt Q00788); assay: [^3 H]AVP binding to crude membrane preparation of male rat kidney medulla (AVP-V2 sites)
T3 construct: male rat liver (AVP-V1 sites) or kidney medulla (AVP-V2 sites); from tissue; host or cells: male rat kidney medulla, crude membranes
Description: as §1

[1] = Receptor Binding Results IC50 (nM) [^3 H]-AVP-V1
[2] = rat kidney medulla membranes, 2 nM [^3 H]AVP, read-out: Receptor Binding Results IC50 (nM) [^3 H]-AVP-V2
[3] = Receptor Binding Results IC50 (nM) [^3 H]-AVP-V2
[4] = read-out: Receptor Binding Results IC50 (nM) [^3 H]-AVP-V1
[5] = read-out: Receptor Binding Results IC50 (nM) [^3 H]-AVP-V2

T2 sequence (P30560 whole entry): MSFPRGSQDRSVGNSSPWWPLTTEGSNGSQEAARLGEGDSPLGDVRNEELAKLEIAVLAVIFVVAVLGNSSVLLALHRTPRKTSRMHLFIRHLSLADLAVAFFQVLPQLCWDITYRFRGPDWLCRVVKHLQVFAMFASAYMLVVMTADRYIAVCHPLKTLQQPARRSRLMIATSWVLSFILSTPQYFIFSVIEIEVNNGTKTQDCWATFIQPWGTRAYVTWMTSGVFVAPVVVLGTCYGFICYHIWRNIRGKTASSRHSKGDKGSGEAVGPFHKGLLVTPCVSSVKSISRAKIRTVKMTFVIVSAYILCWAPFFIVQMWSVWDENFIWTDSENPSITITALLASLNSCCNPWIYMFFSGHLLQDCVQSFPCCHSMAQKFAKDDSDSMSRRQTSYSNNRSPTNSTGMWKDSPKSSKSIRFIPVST
T3 sequence (Q00788 whole entry): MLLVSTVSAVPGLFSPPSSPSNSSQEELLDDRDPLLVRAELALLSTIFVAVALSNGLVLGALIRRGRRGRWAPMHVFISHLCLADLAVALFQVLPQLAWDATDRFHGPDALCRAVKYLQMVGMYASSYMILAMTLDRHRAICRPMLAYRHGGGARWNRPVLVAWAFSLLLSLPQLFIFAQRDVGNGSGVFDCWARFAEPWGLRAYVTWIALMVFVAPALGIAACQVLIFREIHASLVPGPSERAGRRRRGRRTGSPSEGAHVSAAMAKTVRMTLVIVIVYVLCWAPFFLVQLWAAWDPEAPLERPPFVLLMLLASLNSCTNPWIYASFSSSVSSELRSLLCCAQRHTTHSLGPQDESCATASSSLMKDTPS

Compound	inhibition at 0.1 µM (uterine OT receptors)	IC50 (AVP-V1 sites; [1])	IC50 (AVP-V2 sites; [2])	IC50 (AVP-V2 sites; [3])	IC50 (uterine OT receptors)	IC50 (AVP-V1 sites; [4])	IC50 (AVP-V2 sites; [5])
CC[C@H](C)[C@@H]1NC(=O)[C@@H](Cc2c[nH]c3ccccc23)NC(=O)[C@@H]2CCCN2C(=O)[C@@H](Cc2c[nH]cn2)NC(=O)[C@H](CCCCNC(=O)OCc2ccccc2)NC(=O)[C@H]2CCCCN2C1=O [Example 38, Cyclo[D-tryptophanyl-L-isoleucyl-D-pipecolyl-L-(carbobenzyloxy)lysyl-D-histidyl-L-prolyl]] (cyclo(I[dPip]K(Cbz)[dH]P[dW]))	60%	> 1000 nM	10000 nM				
CC[C@H](C)[C@@H]1NC(=O)[C@@H](Cc2ccccc2)NC(=O)[C@@H]2CCCN2C(=O)[C@@H](CCCN)NC(=O)[C@@H]2CCCCN2C(=O)[C@H]2CCCCN2C1=O [Example 39, Cyclo[D-phenylalanyl-L-isoleucyl-D-pipecolyl-L-pipecolyl-D-ornithyl-L-prolyl]] (cyclo(I[dPip][Pip][dOrn]P[dF]))	28%	> 1000 nM		> 10000 nM			
CC[C@H](C)[C@@H]1NC(=O)[C@@H](Cc2c[nH]c3ccccc23)NC(=O)[C@@H]2CCCN2C(=O)[C@@H](Cc2ccccc2)N(C)C(=O)[C@H](CCCN)NC(=O)[C@H]2CCCCN2C1=O [Example 40, Cyclo[D-tryptophanyl-L-isoleucyl-D-pipecolyl-L-ornithyl-D-(N^α Methyl)phenylalanyl-L-prolyl]] (cyclo(I[dPip][Orn][dNMeF]P[dW]))	59%	> 1000 nM		> 1000 nM			
CC[C@H](C)[C@@H]1NC(=O)[C@@H](Cc2ccccc2)NC(=O)[C@@H]2CCCN2C(=O)[C@@H](Cc2ccc(O)cc2)N(C)C(=O)[C@@H]2CCCCN2C(=O)[C@H]2CCCCN2C1=O [Example 46, Cyclo[D-phenylalanyl-L-isoleucyl-D-pipecolyl-L-pipecolyl-D-(N^α Methyl)tyrosyl-L-prolyl]] (cyclo(I[dPip][Pip][dNMeY]P[dF]))	60%	10000 nM		> 1000 nM			
CC[C@H](C)[C@@H]1NC(=O)[C@@H](Cc2ccccc2)NC(=O)[C@@H]2CCCN2C(=O)[C@@H](Cc2ccc([N+](=O)[O-])cc2)NC(=O)[C@@H]2CCCCN2C(=O)[C@H]2CCCCN2C1=O [Example 47, Cyclo[D-phenylalanyl-L-isoleucyl-D-pipecolyl-L-pipecolyl-D(p-nitro)phenylalanyl-L-prolyl]] (cyclo(I[dPip][Pip][dPhe(4-NO2)]P[dF]))		> 1000 nM	10000 nM		620 nM		
CC[C@H](C)[C@@H]1NC(=O)[C@@H](Cc2ccccc2)NC(=O)[C@@H]2CCCN2C(=O)[C@@H](Cc2ccc(N)cc2)NC(=O)[C@@H]2CCCCN2C(=O)[C@H]2CCCCN2C1=O [Example 48, Cyclo[D-phenylalanyl-L-isoleucyl-D-pipecolyl-L-pipecolyl-D-(p-amino)phenylalanyl-L-prolyl]] (cyclo(I[dPip][Pip][dPhe(4-NH2)]P[dF]))		10000 nM	> 10000 nM		250 nM		
CC[C@H](C)[C@@H]1NC(=O)[C@@H](Cc2ccccc2)NC(=O)[C@@H]2CCCN2C(=O)[C@@H](Cc2ccc(NC(=O)CN(C)C)cc2)NC(=O)[C@@H]2CCCCN2C(=O)[C@H]2CCCCN2C1=O [Example 49, Cyclo[D-phenylalanyl-L-isoleucyl-D-pipecolyl-L-pipecolyl-D-([N,N-dimethylglycyl]p-amino)phenylalanyl-L-prolyl]] (cyclo(I[dPip][Pip][dPhe(4-NH2)](Me2Gly)P[dF]))		10000 nM	10000 nM		320 nM		
CC[C@H](C)[C@@H]1NC(=O)[C@@H](Cc2ccccc2)NC(=O)[C@@H]2CCCN2C(=O)[C@@H](Cc2ccc(OCCN3CCOCC3)cc2)N(C)C(=O)[C@@H]2CCCCN2C(=O)[C@H]2CCCCN2C1=O [Example 50] (cyclo(I[dPip][Pip][dNMeY](Ethyl(2-morpholino))P[dF]))		> 10000 nM		> 1000 nM	310 nM		
O=C1N[C@@H](C2CCCCC2)C(=O)N2CCC[C@@H]2C(=O)N2CCC[C@H]2C(=O)N[C@H](Cc2ccccc2)C(=O)N2CCC[C@H]2C(=O)N[C@@H]1Cc1ccccc1 [Example 67, c-[D-Phenylalanyl-L-cyclohexylglycyl-D-prolyl-L-prolyl-D-phenylalanyl-L-prolyl]] (cyclo([dF]P[dF][Chg][dP]P))		> 10000 nM	> 10000 nM		10000 nM		
CC[C@H](C)[C@@H]1NC(=O)[C@@H](Cc2ccccc2)NC(=O)[C@@H]2CCCN2C(=O)[C@@H](Cc2ccccc2)NC(=O)[C@H]2CN(C(=O)OCc3ccccc3)CCN2C(=O)[C@H]2CCCCN2C1=O [Example 76, c-[D-Phenylalanyl-L-isoleucinyl-D-pipecolyl-D-piperazin-2-yl(4-Cbz)-D-phenylalanyl-L-prolyl]] (cyclo(I[dPip][dPip(4-aza,4-Cbz)][dF]P[dF]))					460 nM	9300 nM	10600 nM
CC[C@H](C)[C@@H]1NC(=O)[C@@H](Cc2ccccc2)NC(=O)[C@@H]2CCCN2C(=O)[C@@H](Cc2ccccc2)NC(=O)[C@@H]2CN(C(=O)OCc3ccccc3)CCN2C(=O)[C@H]2CCCCN2C1=O [Example 77, c-[D-Phenylalanyl-L-isoleucinyl-D-pipecolyl-L-piperazin-2-yl(4-Cbz)-D-phenylalanyl-L-prolyl]] (cyclo(I[dPip][X2][dF]P[dF]))		10000 nM			240 nM		12300 nM
CC[C@H](C)[C@@H]1NC(=O)[C@@H](Cc2ccccc2)NC(=O)[C@@H]2CCCN2C(=O)[C@@H](Cc2ccccc2)NC(=O)[C@H]2CNCCN2C(=O)[C@H]2CCCCN2C1=O [Example 78, c-[D-Phenylalanyl-L-isoleucinyl-D-pipecolyl-D-piperazin-2-yl-D-phenylalanyl-L-prolyl]] (cyclo(I[dPip][dPip(4-aza)][dF]P[dF]))			> 10000 nM		300 nM	7900 nM	
CC[C@H](C)[C@@H]1NC(=O)[C@@H](Cc2ccccc2)NC(=O)[C@@H]2CCCN2C(=O)[C@@H](Cc2ccccc2)NC(=O)[C@@H]2CN(C(=O)OCc3ccccc3)CCN2C(=O)[C@H]2CN(C(=O)OCc3ccccc3)CCN2C1=O [Example 79, c-[D-Phenylalanyl-L-isoleucinyl-D-piperazin-2-yl (4-Cbz)-L-piperazin-2-yl (4-Cbz)-D-phenylalanyl-L-prolyl]] (cyclo(I[dPip(4-aza,4-Cbz)][X2][dF]P[dF]))		> 10000 nM	10000 nM		1700 nM		
CC[C@H](C)[C@@H]1NC(=O)[C@@H](Cc2ccccc2)NC(=O)[C@@H]2CCCN2C(=O)[C@@H](Cc2ccccc2)NC(=O)[C@@H]2CNCCN2C(=O)[C@H]2CNCCN2C1=O [Example 80, c-[D-Phenylalanyl-L-isoleucinyl-D-piperazin-2-yl-L-piperazin-2-yl-D-phenylalanyl-L-prolyl]] (cyclo(I[dPip(4-aza)][Pip(4-aza)][dF]P[dF]))		> 10000 nM	> 10000 nM		10000 nM		
CC[C@H](C)[C@@H]1NC(=O)[C@@H](Cc2ccccc2)NC(=O)[C@@H]2CCCN2C(=O)[C@@H](Cc2c[nH]cn2)NC(=O)[C@@H]2CN(C(=O)OCc3ccccc3)CCN2C(=O)[C@H]2CCCCN2C1=O [Example 81, c-[D-Phenylalanyl-L-isoleucinyl-D-pipecolyl-L-piperazin-2yl(4Cbz)-D-histidinyl-L-prolyl]] (cyclo(I[dPip][X2][dH]P[dF]))		> 1000 nM		> 1000 nM	77 nM		
CC[C@H](C)[C@@H]1NC(=O)[C@@H](Cc2ccccc2)NC(=O)[C@@H]2CCCN2C(=O)[C@@H](Cc2c[nH]cn2)NC(=O)[C@H]2CN(C(=O)OCc3ccccc3)CCN2C(=O)[C@H]2CCCCN2C1=O [Example 82, c-[D-Phenylalanyl-L-isoleucinyl-D-pipecolyl-D-piperazin-2-yl(4Cbz)-D-histidinyl-L-prolyl]] (cyclo(I[dPip][dPip(4-aza,4-Cbz)][dH]P[dF]))		10000 nM	10000 nM		73 nM		
CC[C@H](C)[C@@H]1NC(=O)[C@@H](Cc2ccccc2)NC(=O)[C@@H]2CCCN2C(=O)[C@@H](Cc2ccccc2)NC(=O)[C@@H]2CCCCN2C(=O)[C@H]2CN(C(=O)OCc3ccccc3)CCN2C1=O [Example 83, c-[D-Phenylalanyl-L-isoleucinyl-D-piperazin-2-yl-(4-Cbz)-L-pipecolyl-D-phenylalanyl-L-prolyl]] (cyclo(I[dPip(4-aza,4-Cbz)][Pip][dF]P[dF]))		10000 nM	10000 nM		940 nM		
